Values of other authors in US20090169586A1, “STABLE PACKAGED DOSAGE FORM AND PROCESS THEREFOR” (priority 2006, published 2009).

How the values were obtained:
[1] = test system: patients with exercise-induced asthma (EIA); conditions: daily dose of 64 mg, 38 patients; all placebo patients showed more than 15% FEV1 reduction
[2] = test system: patients with long-standing non-insulin dependent diabetes mellitus (NIDDM); conditions: 60 mg/day for 3 weeks, 20 NIDDM patients
[3] = test system: skin's protection against sunburn; conditions: 24 mg taken for more than 10 weeks
[4] = test system: children exposed to long-term doses of radiation; conditions: 40 mg capsules twice daily for 3 months, 709 children

## CC1=C(/C=C/C(C)=C/C=C/C(C)=C/C=C/C=C(C)/C=C/C=C(C)/C=C/C2=C(C)CCCC2(C)C)C(C)(C)CCC1 [beta-carotene from Dunaliella, beta-carotene]
[1]
  patients protected against EIA: 53%
[2]
  LDL oxidation: normalised high LDL oxidation
[3]
  skin's protection against sunburn: double the skin's protection against sunburn
[4]
  serum markers for oxidisation: reduced serum markers for oxidisation
